What was measured:
[1] = target: T1, Endothelin-converting enzyme 2 (Homo sapiens, UniProt P0DPD6); assay: Reduction of recombinant ECE2 activity measured by McaBk2 fluorescent substrate hydrolysis
T1 sequence (P0DPD6 whole entry): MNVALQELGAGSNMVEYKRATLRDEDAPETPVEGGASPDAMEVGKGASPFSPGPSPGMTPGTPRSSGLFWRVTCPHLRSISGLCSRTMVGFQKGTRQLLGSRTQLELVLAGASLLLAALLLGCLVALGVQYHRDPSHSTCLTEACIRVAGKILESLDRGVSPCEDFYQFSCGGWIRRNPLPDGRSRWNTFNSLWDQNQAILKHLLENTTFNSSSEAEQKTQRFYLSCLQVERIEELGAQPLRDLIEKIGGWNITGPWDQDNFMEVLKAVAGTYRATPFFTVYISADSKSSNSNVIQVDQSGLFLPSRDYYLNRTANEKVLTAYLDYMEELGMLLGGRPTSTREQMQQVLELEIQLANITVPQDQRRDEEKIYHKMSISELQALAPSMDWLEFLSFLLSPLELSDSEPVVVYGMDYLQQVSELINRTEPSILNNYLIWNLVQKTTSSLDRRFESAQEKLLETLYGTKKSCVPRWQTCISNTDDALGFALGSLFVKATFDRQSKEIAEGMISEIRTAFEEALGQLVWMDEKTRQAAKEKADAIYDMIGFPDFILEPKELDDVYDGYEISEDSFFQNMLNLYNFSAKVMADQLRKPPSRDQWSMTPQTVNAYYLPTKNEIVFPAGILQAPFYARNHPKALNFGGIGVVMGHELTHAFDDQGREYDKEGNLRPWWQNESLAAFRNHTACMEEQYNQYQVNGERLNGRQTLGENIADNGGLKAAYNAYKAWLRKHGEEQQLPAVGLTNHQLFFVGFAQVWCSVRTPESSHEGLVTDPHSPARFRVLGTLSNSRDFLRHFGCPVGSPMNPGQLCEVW

[2] = target: T2, Endothelin-converting enzyme 2 (Homo sapiens) (UniProt P0DPD6); assay: Reduction of recombinant ECE2 activity measured by McaBk2 fluorescent substrate hydrolysis at 10 uM; parameters: scale not given: the % may be the effect or the level left
T2 sequence (whole entry): T1 sequence (P0DPD6 whole entry)

[3] = target: Neprilysin (Homo sapiens, UniProt P08473); assay: Inhibition of Neprilysin
Chain of Neprilysin (P08473 whole entry): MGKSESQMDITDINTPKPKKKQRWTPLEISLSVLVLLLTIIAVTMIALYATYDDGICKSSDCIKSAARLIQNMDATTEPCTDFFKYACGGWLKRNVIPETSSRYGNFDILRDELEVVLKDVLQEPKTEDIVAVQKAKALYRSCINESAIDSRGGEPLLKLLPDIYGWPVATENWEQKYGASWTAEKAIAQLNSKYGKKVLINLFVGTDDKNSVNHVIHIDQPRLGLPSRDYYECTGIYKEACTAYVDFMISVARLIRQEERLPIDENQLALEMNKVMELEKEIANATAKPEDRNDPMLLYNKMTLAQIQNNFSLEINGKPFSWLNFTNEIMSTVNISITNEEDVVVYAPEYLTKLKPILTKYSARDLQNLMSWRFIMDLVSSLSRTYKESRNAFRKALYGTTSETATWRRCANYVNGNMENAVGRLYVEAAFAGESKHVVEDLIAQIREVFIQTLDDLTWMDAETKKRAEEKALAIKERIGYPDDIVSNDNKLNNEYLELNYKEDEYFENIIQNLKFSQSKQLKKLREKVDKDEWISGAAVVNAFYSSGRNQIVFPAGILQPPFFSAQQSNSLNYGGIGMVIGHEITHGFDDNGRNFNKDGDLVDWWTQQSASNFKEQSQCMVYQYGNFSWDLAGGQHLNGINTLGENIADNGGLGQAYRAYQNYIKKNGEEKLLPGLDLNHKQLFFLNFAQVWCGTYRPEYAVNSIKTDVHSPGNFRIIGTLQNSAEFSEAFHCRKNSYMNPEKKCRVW

Row | IC50 [1] [µM] | Activity [2] [%] | IC50 [3] [µM] | SMILES
1 | 4.63 |  |  | Oc1ccccc1/C=C\c1ccc2ccccc2n1
2 | 5.83 | > 70 | > 50 | O=C(Cc1ccc2nccnc2c1)N1CCCC1
3 | 6.42 | > 70 | > 100 | Oc1ccccc1/C=C/c1ccc2ccccc2n1
4 | 35.7 |  |  | COc1cccc(/C=C/c2ccc3cccc(O)c3n2)c1
5 | 32.9 |  |  | COc1cccc(/C=C/c2ccc3cccc(O)c3n2)c1O

— ChEMBL document CHEMBL1150762, “Homology modeling and site-directed mutagenesis to identify selective inhibitors of endothelin-converting enzyme-2” (J Med Chem, 2008)
